According to publication PMC5974403, “The novel histone de acetylase 6 inhibitor, MPT0G211, ameliorates tau phosphorylation and cognitive deficits in an Alzheimer’s disease model” (Cell Death & Disease, 2018):

Key:
SH-SY5Y cells [1] = assay: Subcellular fractionation of tau pools (tau aggregation) in transfected SH-SY5Y cells; assay type: cell-based, human; settings: SH-SY5Y transfected hAPP 695 + hTau P301L, 0.1 μM, 24 h
Experimental: (§1) The fractionation scheme used to separate different cellular pools of tau, and the western blot analysis of the effects of the compounds on tau pools generated using the fractionation scheme are presented. b, d SH-SY5Y cells were transfected for 24 h with pCAX APP 695 and pRK5-EGFP-Tau P301L, incubated with or without MPT0G211 or ACY-1215 (0.1 μM) for another 24 h, and then the cells were fixed and stained by propidium iodide (b) or annexin V/PI double staining (d) and analyzed by flow cytometry. c, e Percentages of the subG1 phase (c) or annexin V-positive cells (e) in response to drug treatment as explained in (b). Results are presented as the mean ± SEM. *p < 0.05 and **p < 0.01 compared with the control group; ^#p < 0.05 and ^##p < 0.01 compared with the indicated groups TEXT PRINTED IN THE PICTURE: (B) MPT0G211: hAPP + hTauP301L: SubG1 10.91% | (B) ACY-1215: hAPP + hTauP301L: SubG1 15.40% | (D) MPT0G211: hAPP + hTauP301L: 9.56%; hAPP + hTauP301L: 11.26% | (D) ACY-1215: hAPP + hTauP301L: 9.28%; hAPP + hTauP301L: 11.25%
This assay followed a published method. Briefly, cells (1 × 10^7) were treated with drugs for 24 h and scraped off into breaking buffer (0.25 M sucrose, 10 mM HEPES, pH 7.2, 1 mM MgAc2, and protease inhibitors). […] Samples containing equal amounts of protein were analyzed using SDS-PAGE.

HDAC6 = system: HDAC6; set-up: method as in PMID 29304284; settings: cited from earlier work
Neuro-2a cells = assay: MTT cell viability, Neuro-2a; assay type: cell-based, mouse; settings: 24 h, 0.01–1 μM
Experimental: Cell viabilities were determined by MTT assay. The results represent the mean ± SEM of three independent experiments; *p < 0.05, **p < 0.01 and ***p < 0.001 compared with controls TEXT PRINTED IN THE PICTURE: (A) no label printed: M.W. 293.32

Elevated plus maze = assay: Elevated plus maze; set-up: species or system rat; settings: AD in vivo models; stated in introduction only
Experimental: The plus maze consisted of two open and two closed arms, connected by a central platform. Animals were individually placed at the end of either of the open arms facing away from the central platform. The time for each rat to move from the open arm to either of the closed arms was recorded. […] These experiments were performed in accordance with relevant ethics guidelines and regulations, which were reviewed and approved by the Animal Use and Management Committee of the College of Medicine, National Taiwan University (IACUC number: 20130361).

SH-SY5Y cells [2] = assay: Flow cytometry of sub-G1 (PI) and annexin V/PI in transfected SH-SY5Y cells; assay type: cell-based, human; settings: 0.1 μM, 24 h
Experimental: as §1
After drug treatment, the cells were collected, washed with cold phosphate-buffered saline (PBS), and fixed with 75% alcohol overnight at −20 °C. After centrifugation, the fixed cells were washed with cold PBS and resuspended in DNA extraction buffer (0.2 M Na2HPO4, 0.1 M citric acid, pH 7.8) for 30 min. The cells were centrifuged and incubated with propidium iodide (PI) (0.1% Triton X-100, 100 μg/mL RNase A, and 80 μg/mL PI in PBS) for 30 min. The cell cycle was analyzed using a FACScan Flow cytometer and Cell Quest software (Becton Dickinson, Mountain View, CA, USA).

[3] = hAPP + hTauP301L transfected SH-SY5Y, Fig. 3d picture, quadrant not identified

Structure (SMILES): O=C(NO)c1ccc(CNc2cccc3cccnc23)cc1 [MPT0G211, N-hydroxy-4-((quinolin-8-ylamino)methyl)benzamide]
- levels of aggregated tau (SH-SY5Y cells [1]): significantly reduced
- selectivity for HDAC6 compared with the other HDAC isoforms (HDAC6): 1000 fold
- IC50 (HDAC6; read-out: HDAC6 inhibition IC50): 0.291 nM
- cytotoxicity (MTT cell viability) (Neuro-2a cells): did not result in any significant cytotoxicity
- time spent in finding the closed arm (elevated plus maze) and platform (Morris water maze) (Elevated plus maze): reduced the time spent by animals in finding the platform and closed arm
- SubG1 population (SH-SY5Y cells [2]; hAPP + hTauP301L transfected SH-SY5Y, PI staining, Fig. 3b picture): 10.91%
- annexin V/PI double staining, quadrant percentage (SH-SY5Y cells [2]; [3]): 11.26%
- annexin V/PI double staining, quadrant percentage (first value) (SH-SY5Y cells [2]; [3]): 9.56%
- plasmid transfection-induced sub-G1 population and annexin V-positive apoptotic cells increase (SH-SY5Y cells [2]; transfected neuronal cells): significantly inhibited
